{
  "source": "patent US8883410B2",
  "about": "“Method for determining the stability of organic methyleneamines in the presence of semicarbazide-sensitive amine oxidase” (Sanofi, priority 2007, dated 2014)",
  "key": {"[1]": {"target": "T1, human SSAO, full-length, C-terminal 6xHIS tag (Homo sapiens, UniProt Q16853)", "T1 construct": "expressed in transfected cells; cell lysate", "T1 sequence (Q16853 1-763)": "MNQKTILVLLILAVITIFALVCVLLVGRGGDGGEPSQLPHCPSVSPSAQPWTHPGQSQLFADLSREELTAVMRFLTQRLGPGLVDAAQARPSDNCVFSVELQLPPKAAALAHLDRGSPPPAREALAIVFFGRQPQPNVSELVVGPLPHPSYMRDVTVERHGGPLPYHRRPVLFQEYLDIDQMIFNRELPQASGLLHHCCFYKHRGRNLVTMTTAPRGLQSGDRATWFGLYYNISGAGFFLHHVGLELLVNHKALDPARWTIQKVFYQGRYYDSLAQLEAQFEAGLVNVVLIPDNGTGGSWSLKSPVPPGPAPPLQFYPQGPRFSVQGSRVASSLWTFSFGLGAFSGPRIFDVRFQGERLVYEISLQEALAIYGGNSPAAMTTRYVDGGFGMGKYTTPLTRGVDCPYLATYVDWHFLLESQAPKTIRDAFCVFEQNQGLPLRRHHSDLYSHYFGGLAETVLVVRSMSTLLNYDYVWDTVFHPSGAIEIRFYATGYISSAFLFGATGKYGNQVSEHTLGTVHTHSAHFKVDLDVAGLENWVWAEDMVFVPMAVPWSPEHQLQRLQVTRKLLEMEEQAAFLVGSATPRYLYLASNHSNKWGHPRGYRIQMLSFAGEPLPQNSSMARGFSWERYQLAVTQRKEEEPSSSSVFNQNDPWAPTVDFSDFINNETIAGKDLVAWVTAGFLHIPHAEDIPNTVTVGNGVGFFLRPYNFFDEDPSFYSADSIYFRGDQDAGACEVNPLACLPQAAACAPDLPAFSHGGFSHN", "experiment": "Benzylamine stability in lysate of cells expressing full-length SSAO with C-terminal 6xHIS tag, LC/MS/MS", "format": "in vitro ADME", "procedure": "(§1) The expression constructs were prepared by cloning these PCR products into the pCDNA5-FRT-To-DEST vector (Invitrogen, Gateway System™). The forward and reverse DNA sequence of each construct was confirmed including expressed sequences and at least 100 base pairs either side of this. Stable cell lines for Flp-In CHO, Flp-In CHO T-Rex, and Flp-In HEK 293 (Invitrogen, Flp-In system™) were generated using these 6 constructs according to manufacturer's instructions. Cells were co-transfected with the regulatory vector, pOG44, and each of the pCDNA5-FRT-To-DEST constructs using Lipfectamine (Invitrogen) according to manufacturer's instructions. Thus, 18 cell lines were generated: CHO Flp-In full-length SSAO; CHO Flp-In full-length SSAO with C-terminal 6×HIS tag; CHO Flp-In T1 SSAO; CHO Flp-In T1 SSAO with C-terminal 6×HIS tag; CHO Flp-In T2 SSAO; CHO Flp-In T2 SSAO with C-terminal 6×HIS tag; CHO T-Rex Flp-In full-length SSAO; CHO T-Rex Flp-In full-length SSAO with C-terminal 6×HIS tag; CHO T-Rex Flp-In T1 SSAO; CHO T-Rex Flp-In T1 SSAO with C-terminal 6×HIS tag; CHO T-Rex Flp-In T2 SSAO; CHO Flp-In T2 SSAO with C-terminal 6×HIS tag; HEK 293 Flp-In full-length SSAO; HEK 293 Flp-In full-length SSAO with C-terminal 6×HIS tag; HEK 293 Flp-In T1 SSAO; HEK 293 Flp-In T1 SSAO with C-terminal 6×HIS tag; HEK 293 Flp-In T2 SSAO; HEK 293 Flp-In T2 SSAO with C-terminal 6×HIS tag.\n(§2) Adherent CHO cells were cultured at 37° C., 5% CO2 in media containing Ham's F12, 10% fetal bovine serum, 2 mM L-glutamine, 1% Penicillin/Streptomycin, 300 μM hygromycin B. Adherent HEK 293 cells were cultured at 37° C., 5% CO2 in D-MEM (high glucose), 10% fetal bovine serum, 2 mM L-glutamine, and 200 μM hygromycin B. Stable transformants were identified by loss of zeocin resistance. Once the cells were 80% confluent, SSAO expression was induced by the addition of Tetracycline to 1 μg/mL. Following 18 hours, the cells were harvested using a trypsin treatment of 3 minutes, at room temperature. Cells were washed 3 times in phosphate buffered saline before flash freezing in liquid nitrogen.\n(§3) For the preparation of cell lysate for activity testing, frozen cell pellets were resuspended in lysate buffer containing 10 mM Tris-HCl (pH 7.2), 150 mM NaCl, 1.5 mM MgCl2, 1% v/v NP-40 and incubated for 15 minutes on ice. Lysate was cleared by centrifugation 800×g for 10 minutes, 4° C. and stored in aliquots at −80° C. until use. Proteins were determined using Pierce Coomassie Protein Reagent, according to manufacturer's instructions.\n(§4) For each assay run, 1 mL of cell lysate (1.5 mg/mL protein) was mixed with benzylamine to 2000 ng/mL final concentration. At each corresponding time point, […] the incubation mixture was transferred to a microcentrifuge tube (1.7 mL) and mixed with 50 μL of acetonitrile. The tubes were vortex mixed briefly to ensure complete mixing and then centrifuged at 10,000×g for 5 minutes. The supernatant was removed and 50 μL was transferred to an autosampler vial and mixed with 50 μL of water before LC/MS/MS analysis. Benzylamine remaining in the lysate was analyzed with LC/MS/MS method.\nLC/MS/MS analysis was performed with a PE Sciex API 3000 mass spectrometer under the following conditions listed below and in Tables 1 and 2: […]"}, "[2]": {"target": "T2, human SSAO, full-length, untagged (Homo sapiens, UniProt Q16853)", "T2 construct": "expressed in transfected cells; cleared NP-40 cell lysate", "T2 sequence (Q16853 1-763)": "T1 sequence (Q16853 1-763)", "experiment": "Benzylamine stability in lysate of cells expressing full-length SSAO (untagged), LC/MS/MS", "format": "in vitro ADME", "procedure": "as §1, §2, §3, §4\nLC/MS/MS analysis was performed with a PE Sciex API 3000 mass spectrometer under the following conditions listed below and in Tables 1 and 2:\nThe active lysates from CHO Flp-In, CHO Flp-In T-Rex or HEK293 Flp-In expressing full-length SSAO (untagged) were subsequently tested and activity confirmed (Table 4)."}},
  "data": [
    {"smiles": "NCc1ccccc1", "note": "[Benzylamine]", "values": [
      {"measurement": "Benzylamine Remaining (%)", "setting": "[1]; CHO Flp-In T-Rex lysate, 0 min", "result": 100, "unit": "%"},
      {"measurement": "Benzylamine Remaining (%)", "setting": "[1]; CHO Flp-In T-Rex lysate, 10 min", "result": 94, "unit": "%"},
      {"measurement": "Benzylamine Remaining (%)", "setting": "[1]; CHO Flp-In T-Rex lysate, 2 h", "result": 59, "unit": "%"},
      {"measurement": "Benzylamine Remaining (%)", "setting": "[1]; CHO Flp-In lysate, 0 min", "result": 100, "unit": "%"},
      {"measurement": "Benzylamine Remaining (%)", "setting": "[1]; CHO Flp-In lysate, 10 min", "result": 101, "unit": "%"},
      {"measurement": "Benzylamine Remaining (%)", "setting": "[1]; CHO Flp-In lysate, 2 h", "result": 73, "unit": "%"},
      {"measurement": "Benzylamine Remaining (%)", "setting": "[1]; HEK293 lysate, 0 min", "result": 100, "unit": "%"},
      {"measurement": "Benzylamine Remaining (%)", "setting": "[1]; HEK293 lysate, 10 min", "result": 105, "unit": "%"},
      {"measurement": "Benzylamine Remaining (%)", "setting": "[1]; HEK293 lysate, 2 h", "result": 98, "unit": "%"},
      {"measurement": "Benzylamine Remaining (%)", "setting": "[2]; CHO Flp-In T-Rex lysate, Full-length SSAO, tag None, 0 min (Table 3)", "result": 100, "unit": "%"},
      {"measurement": "Benzylamine Remaining (%)", "setting": "[2]; CHO Flp-In T-Rex lysate, Full-length SSAO, tag None, 10 min (Table 3)", "result": 6, "unit": "%"},
      {"measurement": "Benzylamine Remaining (%)", "setting": "[2]; CHO Flp-In T-Rex lysate, Full-length SSAO, tag None, 2 h (Table 3)", "result": 0, "unit": "%"},
      {"measurement": "Benzylamine Remaining (%)", "setting": "[2]; CHO Flp-In T-Rex, full-length SSAO (untagged), 0 min, subsequent test (Table 4)", "result": 100, "unit": "%"},
      {"measurement": "Benzylamine Remaining (%)", "setting": "[2]; CHO Flp-In T-Rex, full-length SSAO (untagged), 10 min, subsequent test (Table 4)", "result": 16, "unit": "%"},
      {"measurement": "Benzylamine Remaining (%)", "setting": "[2]; CHO Flp-In T-Rex, full-length SSAO (untagged), 30 min, subsequent test (Table 4)", "result": 1, "unit": "%"},
      {"measurement": "Benzylamine Remaining (%)", "setting": "[2]; CHO Flp-In lysate, Full-length SSAO, tag None, 0 min (Table 3)", "result": 100, "unit": "%"},
      {"measurement": "Benzylamine Remaining (%)", "setting": "[2]; CHO Flp-In lysate, Full-length SSAO, tag None, 10 min (Table 3)", "result": 1, "unit": "%"},
      {"measurement": "Benzylamine Remaining (%)", "setting": "[2]; CHO Flp-In lysate, Full-length SSAO, tag None, 2 h (Table 3)", "result": 1, "unit": "%"},
      {"measurement": "Benzylamine Remaining (%)", "setting": "[2]; CHO Flp-In, full-length SSAO (untagged), 0 min, subsequent test (Table 4)", "result": 100, "unit": "%"},
      {"measurement": "Benzylamine Remaining (%)", "setting": "[2]; CHO Flp-In, full-length SSAO (untagged), 10 min, subsequent test (Table 4)", "result": 9, "unit": "%"},
      {"measurement": "Benzylamine Remaining (%)", "setting": "[2]; CHO Flp-In, full-length SSAO (untagged), 30 min, subsequent test (Table 4)", "result": 1, "unit": "%"},
      {"measurement": "Benzylamine Remaining (%)", "setting": "[2]; HEK293 Flp-In, full-length SSAO (untagged), 0 min, subsequent test (Table 4)", "result": 100, "unit": "%"},
      {"measurement": "Benzylamine Remaining (%)", "setting": "[2]; HEK293 Flp-In, full-length SSAO (untagged), 10 min, subsequent test (Table 4)", "result": 50, "unit": "%"},
      {"measurement": "Benzylamine Remaining (%)", "setting": "[2]; HEK293 Flp-In, full-length SSAO (untagged), 30 min, subsequent test (Table 4)", "result": 9, "unit": "%"},
      {"measurement": "Benzylamine Remaining (%)", "setting": "[2]; HEK293 lysate, Full-length SSAO, tag None, 0 min (Table 3)", "result": 100, "unit": "%"},
      {"measurement": "Benzylamine Remaining (%)", "setting": "[2]; HEK293 lysate, Full-length SSAO, tag None, 10 min (Table 3)", "result": 58, "unit": "%"},
      {"measurement": "Benzylamine Remaining (%)", "setting": "[2]; HEK293 lysate, Full-length SSAO, tag None, 2 h (Table 3)", "result": 2, "unit": "%"}
    ]}
  ]
}
